The source of these data is article PMC7180948, “New Insights into 4-Anilinoquinazolines as Inhibitors of Cardiac Troponin I–Interacting Kinase (TNNi3K)” (Molecules, 2020).

One assay addresses T1, MEK5 (Homo sapiens, UniProt Q13163).
T1 construct: gene MAP2K5
Put plainly: KINOMEscan at […], single concentration. In kind it is binding.

A further assay concerns the target KIT(V559D,T670I) (Homo sapiens, UniProt P10721, T670I/V559D). Description: biochemical. Details: KINOMEscan competition binding panel (Eurofins DiscoverX), single concentration, % inhibition. As to conditions: read-out: 7 at 1 µM % inhibition. On the procedure:
(§1) KinomeScan® Assay on 7 and 15 was performed as previously described by EuroFins DiscoverX [24]. GSK114 (7) and 15 were submitted for a KINOMEscan® assay to explore the selectivity profile across >400 human kinases at a compound concentration of 1 µM. […] GSK114 (7) is a narrow-spectrum TNNi3K inhibitor but has some potent off-targets including GAK which has been previously reported for this chemotype. […] If utilized together this set of compounds could be useful to investigate TNNi3K biology.

The target of the next assay is DAPK2 (Homo sapiens, UniProt Q9UIK4). Put plainly: biochemical. Details: KINOMEscan competition binding panel (Eurofins DiscoverX), single concentration, % inhibition. As to conditions: read-out: 7 at 1 µM % inhibition. On the procedure:
as §1

A further assay concerns the target DDR2 (Homo sapiens, UniProt Q16832). Put plainly: biochemical. Details: KINOMEscan competition binding panel (Eurofins DiscoverX), single concentration, % inhibition. As to conditions: read-out: 7 at 1 µM % inhibition. On the procedure:
as §1

The target of another assay is FLT3(D835V) (Homo sapiens, UniProt P36888, D835V). Put plainly: biochemical. Details: KINOMEscan competition binding panel (Eurofins DiscoverX), single concentration, % inhibition. Conditions: read-out: 7 at 1 µM % inhibition. On the procedure:
as §1

Another assay addresses PLK1 (Homo sapiens, UniProt P53350). Description: biochemical. Also noted: KINOMEscan competition binding panel (Eurofins DiscoverX), single concentration, % inhibition. Conditions: read-out: 7 at 1 µM % inhibition. As to the method:
as §1

In a further assay the target is KIT(V559D,V654A) (Homo sapiens, UniProt P10721, V559D/V654A). Description: biochemical. Conditions: read-out: 7 at 1 µM % inhibition. Also noted: KINOMEscan competition binding panel (Eurofins DiscoverX), single concentration, % inhibition. As to the method: as §1
Sequence of KIT(V559D,V654A) (P10721 whole entry V559D/V654A): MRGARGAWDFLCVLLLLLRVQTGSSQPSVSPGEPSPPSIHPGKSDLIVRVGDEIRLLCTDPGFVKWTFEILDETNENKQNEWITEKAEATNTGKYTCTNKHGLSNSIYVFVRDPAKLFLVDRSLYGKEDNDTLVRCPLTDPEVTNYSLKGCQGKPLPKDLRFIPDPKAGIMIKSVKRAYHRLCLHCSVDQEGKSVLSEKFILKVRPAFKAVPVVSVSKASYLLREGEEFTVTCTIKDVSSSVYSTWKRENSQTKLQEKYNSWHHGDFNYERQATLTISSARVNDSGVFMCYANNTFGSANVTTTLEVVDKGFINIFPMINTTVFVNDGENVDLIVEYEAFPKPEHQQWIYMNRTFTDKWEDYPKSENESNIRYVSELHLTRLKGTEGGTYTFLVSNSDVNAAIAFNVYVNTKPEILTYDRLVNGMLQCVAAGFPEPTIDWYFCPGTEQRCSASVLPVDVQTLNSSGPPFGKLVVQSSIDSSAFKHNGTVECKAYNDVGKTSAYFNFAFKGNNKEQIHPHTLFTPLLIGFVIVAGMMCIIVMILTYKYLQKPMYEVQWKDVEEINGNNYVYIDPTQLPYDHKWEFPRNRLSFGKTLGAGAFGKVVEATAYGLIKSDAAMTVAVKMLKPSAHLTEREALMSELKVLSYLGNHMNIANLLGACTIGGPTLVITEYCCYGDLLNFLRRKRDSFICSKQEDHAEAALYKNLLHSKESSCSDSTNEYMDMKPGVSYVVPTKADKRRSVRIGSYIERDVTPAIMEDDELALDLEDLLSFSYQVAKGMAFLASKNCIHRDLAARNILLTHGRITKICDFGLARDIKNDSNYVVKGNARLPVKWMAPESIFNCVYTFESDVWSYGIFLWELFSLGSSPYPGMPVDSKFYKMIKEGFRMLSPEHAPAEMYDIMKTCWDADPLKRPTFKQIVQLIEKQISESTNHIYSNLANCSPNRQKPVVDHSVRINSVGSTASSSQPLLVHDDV
In another assay the target is RET (Homo sapiens, UniProt P07949). Put plainly: biochemical. Also noted: KINOMEscan competition binding panel (Eurofins DiscoverX), single concentration, % inhibition. Conditions: read-out: 7 at 1 µM % inhibition. As to the method: as §1
The target in a further assay is CAMK4 (Homo sapiens, UniProt Q16566). Put plainly: biochemical. Details: KINOMEscan competition binding panel (Eurofins DiscoverX), single concentration, % inhibition. As to conditions: read-out: 7 at 1 µM % inhibition. On the procedure: as §1
Assay [1] has as its target T2, ABL1(Q252H)-phosphorylated (Homo sapiens, UniProt P00519, Q252H).
T2 construct: phosphorylated
Put plainly: biochemical. As to conditions: read-out: 7 at 1 µM % inhibition. Details: KINOMEscan competition binding panel (Eurofins DiscoverX), single concentration, % inhibition. On the procedure:
as §1

For assay [2], the target named is T3, ABL1(E255K)-phosphorylated (Homo sapiens, UniProt P00519, E255K).
T3 construct: phosphorylated
Description: biochemical. Conditions: read-out: 7 at 1 µM % inhibition. Details: KINOMEscan competition binding panel (Eurofins DiscoverX), single concentration, % inhibition. As to the method: as §1

The next assay has as its target PKN1 (Homo sapiens, UniProt Q16512). Description: biochemical. Details: KINOMEscan competition binding panel (Eurofins DiscoverX), single concentration, % inhibition. As to conditions: read-out: 7 at 1 µM % inhibition. As to the method:
as §1

A further assay concerns the target CDK2 (Homo sapiens, UniProt P24941). Put plainly: biochemical. Details: KINOMEscan competition binding panel (Eurofins DiscoverX), single concentration, % inhibition. As to conditions: read-out: 7 at 1 µM % inhibition. On the procedure: as §1
Another assay has as its target TNK2 (Homo sapiens, UniProt Q07912). Put plainly: biochemical. Also noted: KINOMEscan competition binding panel (Eurofins DiscoverX), single concentration, % inhibition. Conditions: read-out: 7 at 1 µM % inhibition. As to the method: as §1
In a further assay the target is EPHA8 (Homo sapiens, UniProt P29322). Description: biochemical. Details: KINOMEscan competition binding panel (Eurofins DiscoverX), single concentration, % inhibition. Conditions: read-out: 7 at 1 µM % inhibition. On the procedure: as §1
A further assay has as its target PIK3CD (Homo sapiens, UniProt O00329). Put plainly: biochemical. Conditions: read-out: 7 at 1 µM % inhibition. Details: KINOMEscan competition binding panel (Eurofins DiscoverX), single concentration, % inhibition. On the procedure:
as §1

A further assay concerns the target T4, CTK (Homo sapiens, UniProt P42679).
T4 construct: gene MATK
Put plainly: biochemical. Also noted: KINOMEscan competition binding panel (Eurofins DiscoverX), single concentration, % inhibition. Conditions: read-out: 7 at 1 µM % inhibition. On the procedure: as §1

A further assay has as its target CSNK1A1L (Homo sapiens, UniProt Q8N752). Description: biochemical. Also noted: KINOMEscan competition binding panel (Eurofins DiscoverX), single concentration, % inhibition. Conditions: read-out: 7 at 1 µM % inhibition. On the procedure:
as §1

For another assay, the target named is EPHB4 (Homo sapiens, UniProt P54760). Put plainly: biochemical. Also noted: KINOMEscan competition binding panel (Eurofins DiscoverX), single concentration, % inhibition. As to conditions: read-out: 7 at 1 µM % inhibition. As to the method:
as §1

The target of a further assay is BTK (Homo sapiens, UniProt Q06187). Description: biochemical. Also noted: KINOMEscan competition binding panel (Eurofins DiscoverX), single concentration, % inhibition. Conditions: read-out: 7 at 1 µM % inhibition. On the procedure:
as §1

In another assay the target is NEK10 (Homo sapiens, UniProt Q6ZWH5). Description: biochemical. Details: KINOMEscan competition binding panel (Eurofins DiscoverX), single concentration, % inhibition. Conditions: read-out: 7 at 1 µM % inhibition. On the procedure:
as §1

The target of the next assay is PRKCQ (Homo sapiens, UniProt Q04759). Description: biochemical. Conditions: read-out: 7 at 1 µM % inhibition. Details: KINOMEscan competition binding panel (Eurofins DiscoverX), single concentration, % inhibition. On the procedure:
as §1

The target of the next assay is FLT3(R834Q) (Homo sapiens, UniProt P36888, R834Q). Put plainly: biochemical. As to conditions: read-out: 7 at 1 µM % inhibition. Also noted: KINOMEscan competition binding panel (Eurofins DiscoverX), single concentration, % inhibition. As to the method:
as §1

Another assay addresses STK39 (Homo sapiens, UniProt Q9UEW8). Put plainly: biochemical. Details: KINOMEscan competition binding panel (Eurofins DiscoverX), single concentration, % inhibition. As to conditions: read-out: 7 at 1 µM % inhibition. As to the method: as §1

T1 sequence (Q13163 whole entry): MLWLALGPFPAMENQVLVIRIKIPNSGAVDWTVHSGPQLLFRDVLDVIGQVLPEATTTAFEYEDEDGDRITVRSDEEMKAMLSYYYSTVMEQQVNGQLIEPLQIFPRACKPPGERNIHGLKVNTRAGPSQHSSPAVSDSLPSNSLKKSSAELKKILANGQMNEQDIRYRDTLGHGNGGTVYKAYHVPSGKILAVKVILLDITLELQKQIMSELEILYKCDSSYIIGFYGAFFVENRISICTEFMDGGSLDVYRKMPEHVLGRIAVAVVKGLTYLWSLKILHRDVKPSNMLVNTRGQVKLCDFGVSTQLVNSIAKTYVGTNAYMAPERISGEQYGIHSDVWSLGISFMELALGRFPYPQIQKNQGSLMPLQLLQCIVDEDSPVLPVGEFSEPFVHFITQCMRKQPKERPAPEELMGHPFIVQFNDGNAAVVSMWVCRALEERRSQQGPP
T4 sequence (P42679 whole entry): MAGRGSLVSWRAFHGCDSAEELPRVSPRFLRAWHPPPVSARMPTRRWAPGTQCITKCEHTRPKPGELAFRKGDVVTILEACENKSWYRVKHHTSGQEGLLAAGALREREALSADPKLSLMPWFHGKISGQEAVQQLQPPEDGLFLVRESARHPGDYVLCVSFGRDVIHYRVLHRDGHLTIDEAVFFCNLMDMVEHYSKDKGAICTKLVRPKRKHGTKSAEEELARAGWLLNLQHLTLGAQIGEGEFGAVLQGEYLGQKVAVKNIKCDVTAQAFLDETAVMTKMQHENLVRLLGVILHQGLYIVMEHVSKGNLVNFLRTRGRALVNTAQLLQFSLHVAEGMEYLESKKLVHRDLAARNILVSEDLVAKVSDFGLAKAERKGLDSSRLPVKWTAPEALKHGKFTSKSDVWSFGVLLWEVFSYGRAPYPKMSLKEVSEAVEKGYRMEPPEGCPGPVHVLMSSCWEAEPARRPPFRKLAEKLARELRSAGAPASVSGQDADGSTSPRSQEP
Sequence of NEK10 (Q6ZWH5 whole entry): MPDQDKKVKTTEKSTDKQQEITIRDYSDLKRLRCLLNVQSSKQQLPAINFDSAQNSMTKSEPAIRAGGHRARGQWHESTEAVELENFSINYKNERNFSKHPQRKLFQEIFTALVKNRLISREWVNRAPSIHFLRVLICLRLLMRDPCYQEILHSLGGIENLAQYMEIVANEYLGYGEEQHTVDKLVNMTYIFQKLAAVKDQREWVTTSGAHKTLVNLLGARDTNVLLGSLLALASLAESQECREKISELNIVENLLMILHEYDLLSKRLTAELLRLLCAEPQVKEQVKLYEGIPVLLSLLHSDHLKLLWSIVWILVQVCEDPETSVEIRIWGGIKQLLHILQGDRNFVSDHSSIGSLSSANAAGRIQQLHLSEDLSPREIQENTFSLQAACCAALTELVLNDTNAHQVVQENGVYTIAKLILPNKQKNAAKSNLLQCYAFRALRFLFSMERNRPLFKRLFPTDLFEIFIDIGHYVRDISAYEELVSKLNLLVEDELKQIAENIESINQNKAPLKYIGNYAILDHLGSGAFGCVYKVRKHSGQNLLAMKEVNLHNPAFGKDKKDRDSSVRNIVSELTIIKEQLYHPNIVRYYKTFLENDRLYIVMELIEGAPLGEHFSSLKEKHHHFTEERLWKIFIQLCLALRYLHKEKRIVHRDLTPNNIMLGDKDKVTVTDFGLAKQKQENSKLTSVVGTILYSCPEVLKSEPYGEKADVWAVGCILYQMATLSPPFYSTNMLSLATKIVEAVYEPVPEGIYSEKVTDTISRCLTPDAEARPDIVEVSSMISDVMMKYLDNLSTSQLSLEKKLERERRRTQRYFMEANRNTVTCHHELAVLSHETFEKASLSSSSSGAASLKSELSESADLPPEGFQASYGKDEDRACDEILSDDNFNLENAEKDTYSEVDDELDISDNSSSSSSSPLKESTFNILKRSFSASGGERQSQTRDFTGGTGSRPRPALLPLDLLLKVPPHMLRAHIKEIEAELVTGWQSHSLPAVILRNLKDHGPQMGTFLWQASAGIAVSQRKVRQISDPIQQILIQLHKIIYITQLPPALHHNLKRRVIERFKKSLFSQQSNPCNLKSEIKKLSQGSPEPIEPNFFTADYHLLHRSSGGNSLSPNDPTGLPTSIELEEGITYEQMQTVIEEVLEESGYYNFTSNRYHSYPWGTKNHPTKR
Sequence of PIK3CD (O00329 whole entry): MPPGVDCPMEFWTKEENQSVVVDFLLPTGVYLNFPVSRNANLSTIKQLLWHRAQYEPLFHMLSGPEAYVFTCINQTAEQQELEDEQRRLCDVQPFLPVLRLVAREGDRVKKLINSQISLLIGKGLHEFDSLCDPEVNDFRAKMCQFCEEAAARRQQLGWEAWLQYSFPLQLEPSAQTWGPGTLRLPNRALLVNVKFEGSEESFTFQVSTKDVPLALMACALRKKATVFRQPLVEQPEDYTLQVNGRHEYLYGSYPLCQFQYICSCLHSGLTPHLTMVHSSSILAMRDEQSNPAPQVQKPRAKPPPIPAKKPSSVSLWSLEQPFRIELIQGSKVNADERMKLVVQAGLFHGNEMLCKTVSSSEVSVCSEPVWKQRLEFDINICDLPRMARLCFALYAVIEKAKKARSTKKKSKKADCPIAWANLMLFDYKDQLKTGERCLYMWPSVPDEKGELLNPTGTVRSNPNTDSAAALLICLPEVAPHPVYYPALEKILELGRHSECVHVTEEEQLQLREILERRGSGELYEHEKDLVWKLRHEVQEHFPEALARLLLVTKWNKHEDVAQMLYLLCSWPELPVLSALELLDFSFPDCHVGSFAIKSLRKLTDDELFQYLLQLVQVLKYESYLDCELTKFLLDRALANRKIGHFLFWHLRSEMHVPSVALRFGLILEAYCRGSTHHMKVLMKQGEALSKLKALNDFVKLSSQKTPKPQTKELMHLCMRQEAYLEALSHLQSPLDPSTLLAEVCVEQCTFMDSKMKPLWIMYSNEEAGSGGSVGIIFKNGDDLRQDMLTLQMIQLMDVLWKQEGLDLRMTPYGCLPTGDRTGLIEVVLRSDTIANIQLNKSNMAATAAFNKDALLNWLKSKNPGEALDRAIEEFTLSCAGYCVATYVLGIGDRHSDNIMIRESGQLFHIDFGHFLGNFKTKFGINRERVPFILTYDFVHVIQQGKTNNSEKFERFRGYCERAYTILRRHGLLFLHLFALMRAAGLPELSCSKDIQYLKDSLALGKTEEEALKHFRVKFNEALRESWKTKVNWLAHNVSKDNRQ
Sequence of CSNK1A1L (Q8N752 whole entry): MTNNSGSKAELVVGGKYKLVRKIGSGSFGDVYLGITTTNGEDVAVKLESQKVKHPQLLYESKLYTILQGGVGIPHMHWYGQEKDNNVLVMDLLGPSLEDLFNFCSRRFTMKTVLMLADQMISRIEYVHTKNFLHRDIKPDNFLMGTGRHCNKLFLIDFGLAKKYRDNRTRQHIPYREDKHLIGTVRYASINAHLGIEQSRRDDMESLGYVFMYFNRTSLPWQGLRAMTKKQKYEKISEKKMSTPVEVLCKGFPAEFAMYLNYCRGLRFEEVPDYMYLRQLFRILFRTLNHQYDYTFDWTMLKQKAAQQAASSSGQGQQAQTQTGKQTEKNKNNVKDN
Sequence of KIT(V559D,T670I) (P10721 whole entry V559D/T670I): as the sequence (P10721 whole entry V559D/V654A) above, with A654V, T670I counted along it
Sequence of DAPK2 (Q9UIK4 whole entry): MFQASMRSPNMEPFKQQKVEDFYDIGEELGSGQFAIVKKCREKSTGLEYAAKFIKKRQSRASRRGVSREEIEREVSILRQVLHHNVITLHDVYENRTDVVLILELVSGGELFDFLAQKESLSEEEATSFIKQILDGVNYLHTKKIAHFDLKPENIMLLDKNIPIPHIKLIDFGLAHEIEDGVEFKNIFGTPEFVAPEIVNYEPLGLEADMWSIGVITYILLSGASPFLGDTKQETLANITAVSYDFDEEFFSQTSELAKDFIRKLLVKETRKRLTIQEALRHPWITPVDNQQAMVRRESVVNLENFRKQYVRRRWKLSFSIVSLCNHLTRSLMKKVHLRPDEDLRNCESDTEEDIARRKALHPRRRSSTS

Consider `CNS(=O)(=O)c1ccc(N(C)C)c(Nc2ncnc3cc(OC)c(OC)cc23)c1` [compound 7, 3-((6,7-dimethoxyquinazolin-4-yl)amino)-4-(dimethylamino)-N-methylbenzenesulfonamide], for which the inhibition (in general, the change of the read-out against control, counted positive when it falls) at 1 µM against MEK5 came to 100%; on KIT(V559D,T670I) it was 8%; at DAPK2, 0%; at DDR2, 41%; at FLT3(D835V) it was 91.8%; on PLK1, 0%. The inhibition at 1 µM is 0% at KIT(V559D,V654A); 11% on RET; 0% on CAMK4; 79% in assay [1]; 34% in assay [2]; 0% on PKN1. For the same compound, the inhibition at 1 µM at CDK2 stood at 0%; on TNK2, 26%; at EPHA8, 0%; at PIK3CD it was 61%; at CTK, 1%; at CSNK1A1L, 0%. For the same compound, the inhibition at 1 µM amounted to 0% on EPHB4; 54% at BTK; 0% at NEK10; 28% at PRKCQ; 31% at FLT3(R834Q); 8% at STK39.

As for `CNS(=O)(=O)c1ccc(N(C)C)c(Nc2nc(C)nc3cc(OC)c(OC)cc23)c1` [compound 15, 3-((6,7-dimethoxy-2-methylquinazolin-4-yl)amino)-4-(dimethylamino)-N-methylbenzenesulfonamide], 1 µM produced 92% inhibition against MEK5.
